The structures appear in SMILES notation. ± gives the expanded uncertainty stated by the source.

What is called refractive index is a measure of how strongly the sample bends light.

Data set [1] is described as follows: refractive index (Na D-line) (dimensionless); xn = mol fraction of the nth substance listed. The following applies: 101 kPa, Liquid, Standard Abbe refractometry.
The nature of data set [2]: refractive index (Na D-line) (dimensionless). The note with it: 101.33 kPa, Liquid, Standard Abbe refractometry.

In the case of `C1CCOC1` [tetrahydrofuran] + O, the refractive index in data set [1] (298.15 K, x1 = 0.01) is on record as 1.3371 ± 0.0005; in data set [1] (298.15 K, x1 = 0.02), 1.3409 ± 0.0005; in data set [1] (298.15 K, x1 = 0.03) it was 1.3448 ± 0.0005; in data set [1] (298.15 K, x1 = 0.04) it was 1.348 ± 0.0005; in data set [1] (298.15 K, x1 = 0.05), 1.351 ± 0.0005; in data set [1] (298.15 K, x1 = 0.06) it was 1.354 ± 0.0005. The refractive index is on record as 1.4061 ± 0.0006 in data set [1] (298.15 K, x1 = 1); 1.3366 ± 0.0005 in data set [1] (303.15 K, x1 = 0.01); 1.3401 ± 0.0005 in data set [1] (303.15 K, x1 = 0.02); 1.3431 ± 0.0005 in data set [1] (303.15 K, x1 = 0.03); 1.347 ± 0.0005 in data set [1] (303.15 K, x1 = 0.04); 1.3496 ± 0.0005 in data set [1] (303.15 K, x1 = 0.05). Besides, the refractive index is recorded as 1.3521 ± 0.0005 in data set [1] (303.15 K, x1 = 0.06) and 1.4041 ± 0.0006 in data set [1] (303.15 K, x1 = 1).
With `O` [water], the results for the refractive index in data set [2] (298.15 K) and in data set [2] (303.15 K) were 1.3331 ± 0.0005 and 1.3326 ± 0.0005, respectively.

(Values after the NIST ThermoML archive (doi:10.1016/j.fluid.2013.11.002).)
